Patent publication US10508120B2, “TYK2 inhibitors and uses thereof” (Nimbus Lakshmi, Inc., priority 2017, dated 2019)
Where two headings read alike, the source gives them in different places.

Experiments:
[1] = biological target: JAK2/JAK2 homdimeric complex (Homo sapiens (Human), UniProt O60674); assay: GM-CSF Induced pSTAT5 in Human PBMC; assay type: cell-based; details: GM-CSF 5 ng/mL for 20 minutes, pSTAT5 by MSD, read-out: PBMC_GMCSF_pSTAT5 IC50
[2] = biological target: Tyk2 kinase domain (DH1) (Homo sapiens (Human), UniProt P29597); assay: Tyk2 Radioactive Kinase Assay; assay type: biochemical; details: read-out: Tyk2 JH1% Inhibition @ 10 μM
How it was run: (§1)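 Values are single-concentration percent inhibition figures. They were obtained with 10 μM compound in a radioactivity-based kinase assay run separately on each enzyme.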

[3] = biological target: JAK2 kinase domain (JH1) (Homo sapiens (Human), UniProt O60674); assay: JAK2 Radioactive Kinase Assay; assay type: biochemical; details: read-out: JAK2 JH1% Inhibition @ 10 μM
How it was run: as §1

[4] = biological target: Tyk2/JAK2 (heterodimeric complex) (Homo sapiens (Human), UniProt P29597); assay: IL-12 Induced pSTAT4 in Human PBMC; assay type: cell-based; details: 1.7 ng/mL IL-12
From the text: The IL-12 Induced pSTAT4 assay evaluates the inhibition of IL-12 induced STAT4 phophorylation mediated by Tyk2/JAK2 (heterodimeric complex).

[5] = biological target: human TYK2 (JH2domain-pseudokinase) (Homo sapiens (Human), UniProt P29597); assay: TYK2 JH2 Domain Binding Assay (KINOMEscan)
How it was run: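 Competition binding of a DNA-tagged fusion of human TYK2 JH2 pseudokinase (G556–D888) with NFkB DNA-binding domain, from HEK293 extracts (<0.1 nM final), against immobilised ligand beads; 1 h shaking at room temperature, 0.9% DMSO. Bound kinase quantified by qPCR.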

Chain of Tyk2/JAK2 (heterodimeric complex) (P29597 whole entry, other chains not shown): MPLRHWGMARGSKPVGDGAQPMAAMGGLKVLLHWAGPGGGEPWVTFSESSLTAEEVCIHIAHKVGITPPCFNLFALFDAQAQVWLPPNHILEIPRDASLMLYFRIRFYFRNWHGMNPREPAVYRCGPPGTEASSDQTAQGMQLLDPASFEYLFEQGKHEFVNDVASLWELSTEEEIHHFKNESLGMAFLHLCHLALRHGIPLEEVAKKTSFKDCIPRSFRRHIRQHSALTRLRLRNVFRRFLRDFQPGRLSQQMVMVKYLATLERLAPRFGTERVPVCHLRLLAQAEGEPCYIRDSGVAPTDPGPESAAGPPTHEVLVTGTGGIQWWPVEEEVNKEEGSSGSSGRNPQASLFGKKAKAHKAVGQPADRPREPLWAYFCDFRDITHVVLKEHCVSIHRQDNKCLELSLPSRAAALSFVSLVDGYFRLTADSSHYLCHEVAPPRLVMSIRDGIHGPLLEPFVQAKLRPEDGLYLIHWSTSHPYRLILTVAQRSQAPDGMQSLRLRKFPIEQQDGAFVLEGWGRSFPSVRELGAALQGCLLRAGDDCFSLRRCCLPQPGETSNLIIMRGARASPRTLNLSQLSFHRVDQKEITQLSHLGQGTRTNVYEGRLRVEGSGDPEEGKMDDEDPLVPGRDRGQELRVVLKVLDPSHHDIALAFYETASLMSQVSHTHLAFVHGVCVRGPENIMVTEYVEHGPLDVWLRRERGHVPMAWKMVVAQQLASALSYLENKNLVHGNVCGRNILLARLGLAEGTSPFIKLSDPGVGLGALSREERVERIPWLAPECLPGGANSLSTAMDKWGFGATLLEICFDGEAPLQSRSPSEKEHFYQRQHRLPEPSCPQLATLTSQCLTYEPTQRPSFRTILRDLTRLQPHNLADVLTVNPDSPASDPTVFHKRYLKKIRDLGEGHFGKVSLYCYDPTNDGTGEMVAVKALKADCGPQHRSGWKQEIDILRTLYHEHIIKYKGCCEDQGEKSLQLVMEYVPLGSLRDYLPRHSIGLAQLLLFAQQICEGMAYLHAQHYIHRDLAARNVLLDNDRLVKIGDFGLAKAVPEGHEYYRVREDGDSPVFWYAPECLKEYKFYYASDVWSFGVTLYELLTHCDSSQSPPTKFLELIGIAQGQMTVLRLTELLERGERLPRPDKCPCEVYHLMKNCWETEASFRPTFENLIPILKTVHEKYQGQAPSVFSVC
Chain of Tyk2 kinase domain (DH1) (P29597 897-1176): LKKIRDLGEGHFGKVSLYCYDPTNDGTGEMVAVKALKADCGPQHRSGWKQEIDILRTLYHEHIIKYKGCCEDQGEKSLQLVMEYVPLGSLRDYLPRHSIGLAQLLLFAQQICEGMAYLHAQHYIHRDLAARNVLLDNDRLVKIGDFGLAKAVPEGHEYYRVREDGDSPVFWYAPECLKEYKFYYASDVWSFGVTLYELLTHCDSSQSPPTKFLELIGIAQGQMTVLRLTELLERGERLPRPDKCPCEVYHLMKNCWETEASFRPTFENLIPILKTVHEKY
Chain of JAK2 kinase domain (JH1) (O60674 849-1124): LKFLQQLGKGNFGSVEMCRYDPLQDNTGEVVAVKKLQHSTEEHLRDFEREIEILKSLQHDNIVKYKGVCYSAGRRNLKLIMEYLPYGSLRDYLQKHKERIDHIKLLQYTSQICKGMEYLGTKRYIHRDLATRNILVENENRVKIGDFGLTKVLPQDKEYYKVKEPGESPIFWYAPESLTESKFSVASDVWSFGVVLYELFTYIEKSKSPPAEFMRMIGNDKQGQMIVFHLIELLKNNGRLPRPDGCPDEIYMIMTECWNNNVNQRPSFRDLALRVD
Chain of JAK2/JAK2 homdimeric complex (O60674 whole entry, the tested form may be a part): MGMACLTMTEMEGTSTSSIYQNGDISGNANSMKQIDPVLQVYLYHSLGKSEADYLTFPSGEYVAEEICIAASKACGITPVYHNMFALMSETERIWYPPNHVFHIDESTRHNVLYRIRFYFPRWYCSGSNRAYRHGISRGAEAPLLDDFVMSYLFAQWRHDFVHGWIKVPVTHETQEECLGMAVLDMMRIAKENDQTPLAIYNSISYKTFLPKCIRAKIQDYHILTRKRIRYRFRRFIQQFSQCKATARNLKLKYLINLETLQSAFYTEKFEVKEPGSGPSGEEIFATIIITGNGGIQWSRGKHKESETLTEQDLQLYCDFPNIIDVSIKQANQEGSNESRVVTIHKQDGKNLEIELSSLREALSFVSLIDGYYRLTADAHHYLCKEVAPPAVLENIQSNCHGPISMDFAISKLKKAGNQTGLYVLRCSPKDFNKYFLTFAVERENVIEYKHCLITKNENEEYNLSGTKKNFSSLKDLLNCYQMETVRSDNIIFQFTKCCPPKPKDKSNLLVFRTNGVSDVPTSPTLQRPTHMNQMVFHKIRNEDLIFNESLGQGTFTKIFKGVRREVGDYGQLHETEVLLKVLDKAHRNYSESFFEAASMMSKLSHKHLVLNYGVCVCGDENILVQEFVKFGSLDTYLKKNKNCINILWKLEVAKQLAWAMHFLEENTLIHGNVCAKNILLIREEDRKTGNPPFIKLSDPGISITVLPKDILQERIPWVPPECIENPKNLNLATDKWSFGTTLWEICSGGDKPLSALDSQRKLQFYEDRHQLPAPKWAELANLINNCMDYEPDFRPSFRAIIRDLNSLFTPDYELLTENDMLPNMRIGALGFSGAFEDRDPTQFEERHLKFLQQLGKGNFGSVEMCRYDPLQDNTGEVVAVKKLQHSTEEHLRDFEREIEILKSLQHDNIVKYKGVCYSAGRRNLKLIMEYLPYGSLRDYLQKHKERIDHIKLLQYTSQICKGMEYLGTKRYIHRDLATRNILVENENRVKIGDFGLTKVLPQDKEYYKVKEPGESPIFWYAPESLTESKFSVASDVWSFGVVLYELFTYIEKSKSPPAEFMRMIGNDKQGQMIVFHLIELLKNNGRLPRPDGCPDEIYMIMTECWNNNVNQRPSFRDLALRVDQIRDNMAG
Chain of JAK2/JAK2 homdimeric complex (P32927 17-897 partner): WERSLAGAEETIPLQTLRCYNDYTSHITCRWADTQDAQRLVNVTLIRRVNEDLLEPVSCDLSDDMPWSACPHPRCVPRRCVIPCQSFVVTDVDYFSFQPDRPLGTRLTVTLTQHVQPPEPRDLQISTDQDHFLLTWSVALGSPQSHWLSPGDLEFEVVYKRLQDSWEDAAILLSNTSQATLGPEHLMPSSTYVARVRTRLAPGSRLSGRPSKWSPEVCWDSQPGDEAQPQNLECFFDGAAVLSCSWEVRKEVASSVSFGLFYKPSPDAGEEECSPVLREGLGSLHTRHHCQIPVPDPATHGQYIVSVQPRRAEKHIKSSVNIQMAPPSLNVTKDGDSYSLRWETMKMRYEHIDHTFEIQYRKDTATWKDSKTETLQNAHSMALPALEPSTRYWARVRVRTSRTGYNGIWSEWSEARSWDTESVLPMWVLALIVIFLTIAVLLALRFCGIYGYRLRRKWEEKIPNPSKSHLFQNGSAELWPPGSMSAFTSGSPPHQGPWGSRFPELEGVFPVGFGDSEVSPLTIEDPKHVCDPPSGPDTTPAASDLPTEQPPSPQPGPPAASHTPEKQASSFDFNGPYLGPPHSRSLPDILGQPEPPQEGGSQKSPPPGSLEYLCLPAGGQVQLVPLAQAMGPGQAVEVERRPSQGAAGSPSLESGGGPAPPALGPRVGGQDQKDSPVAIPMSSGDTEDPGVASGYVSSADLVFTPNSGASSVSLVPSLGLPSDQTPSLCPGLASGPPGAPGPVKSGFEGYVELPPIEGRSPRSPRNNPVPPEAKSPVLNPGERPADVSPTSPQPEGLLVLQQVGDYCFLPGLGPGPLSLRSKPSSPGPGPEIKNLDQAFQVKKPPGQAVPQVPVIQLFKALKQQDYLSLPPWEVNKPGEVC
Chain of human TYK2 (JH2domain-pseudokinase) (P29597 556-888): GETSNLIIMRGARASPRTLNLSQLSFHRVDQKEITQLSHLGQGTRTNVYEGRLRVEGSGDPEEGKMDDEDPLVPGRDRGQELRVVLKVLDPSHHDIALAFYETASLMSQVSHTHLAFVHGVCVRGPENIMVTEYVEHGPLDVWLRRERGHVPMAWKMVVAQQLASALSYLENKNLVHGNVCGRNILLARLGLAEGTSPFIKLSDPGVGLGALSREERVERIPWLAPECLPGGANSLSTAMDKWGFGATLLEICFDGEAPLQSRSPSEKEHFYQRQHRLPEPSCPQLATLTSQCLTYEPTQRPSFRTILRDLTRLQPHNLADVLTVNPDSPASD

| SMILES | IC50 [1] | inhibition at 10 µM ([2]; compound at 10 μM, ATP 10 μM) | inhibition at 10 µM ([3]; compound at 10 μM, ATP 10 μM) | IC50 [4] | Kd [5] | inhibition at 10 µM ([2]; 10 μM compound, 10 μM ATP) | inhibition at 10 µM ([3]; 10 μM compound, 10 μM ATP) |
| --- | --- | --- | --- | --- | --- | --- | --- |
| CNc1cc(Nc2cccc3ocnc23)nc2c(C(=O)N[C@H]3C[C@H]3F)cnn12 [I-592] | > 12500 nM | < 50% | < 50% | < 100 nM | < 0.2 nM |  |  |
| CNc1cc(Nc2cccnc2OC)nc2c(C(=O)NC[C@H](C)CO)cnn12 [I-483] | > 50000 nM | < 50% | < 50% | < 100 nM | < 0.2 nM |  |  |
| CNc1cc(Nc2cccn(-c3ccc(N4CCOCC4)cc3)c2=O)nc2c(C(=O)N[C@H]3C[C@H]3F)cnn12 [I-135] | > 2500 nM | < 50% | < 50% | < 100 nM | < 0.2 nM |  |  |
| CNc1cc(Nc2cccnc2OC(F)F)nc2c(C(=O)N[C@H]3C[C@H]3F)cnn12 [I-153] | > 12500 nM | < 50% | 50 to 70% | < 100 nM | < 0.2 nM |  |  |
| CNC(=O)c1occc1Nc1cc(NC)n2ncc(C(=O)N[C@@H]3C[C@@H]3F)c2n1 [I-888, N-((1R,2S)-2-fluorocyclopropyl)-7-(methylamino)-5-((2-(methylcarbamoyl)furan-3-yl)amino)pyrazolo[1,5-a]pyrimidine-3-carboxamide] | > 50000 nM |  |  | < 100 nM | < 0.2 nM | < 50% | < 50% |
| CNc1cc(Nc2cccnc2OC)nc2c(C(=O)N[C@H]3CC[C@H]3O)cnn12 [I-429] | > 50000 nM | < 50% | < 50% | < 100 nM | < 0.2 nM |  |  |
| [2H]C([2H])([2H])Nc1cc(Nc2cccnc2OC)nc2c(C(=O)N[C@@H]3C[C@@H]3F)cnn12 (stereo in doubt) [I-374, N-((1R,2S)-2-fluorocyclopropyl)-5-((2-methoxypyridin-3-yl)amino)-7-((methyl-d3)amino)pyrazolo[1,5-a]pyrimidine-3-carboxamide] | > 50000 nM | < 50% | < 50% | < 100 nM | < 0.2 nM |  |  |
| CNc1cc(-c2cn(C(C)C)c3ncccc23)nc2c(C(=O)NC3CC3)cnn12 [I-223] | > 12500 nM | < 50% | < 50% | < 100 nM | < 0.2 nM |  |  |
| CNc1cc(Nc2cc(C)cn(-c3cnn(C)c3)c2=O)nc2c(C(N)=O)cnn12 [I-31] | > 300 nM | < 50% | < 50% | 100 to 500 nM | < 0.2 nM |  |  |
| CNc1cc(Nc2cccn(-c3ncccc3F)c2=O)nc2c(C(=O)NCC(C)(C)CO)cnn12 [I-510] | > 50000 nM | < 50% | < 50% | < 100 nM | < 0.2 nM |  |  |
| CNc1cc(Nc2cccc(-c3cnn(C)c3)c2Cl)nc2c(C(N)=O)cnn12 [I-17] | > 2500 nM | 70 to 90% | < 50% | < 100 nM | < 0.2 nM |  |  |
| CNc1cc(Nc2cccn(C3CCOCC3)c2=O)nc2c(C(=O)N[C@H]3C[C@H]3F)cnn12 [I-330] | > 2500 nM | < 50% | < 50% | < 100 nM | < 0.2 nM |  |  |
| [2H]C([2H])([2H])Oc1ncc(F)cc1Nc1cc(NC)n2ncc(C(=O)NC3CCC3)c2n1 [I-288] | > 2500 nM | < 50% | < 50% | < 100 nM | < 0.2 nM |  |  |
| CNc1cc(Nc2cccn(C3CCCN(CCF)C3)c2=O)nc2c(C(=O)N[C@@H]3C[C@@H]3F)cnn12 (some centres unmarked) [I-849] | > 50000 nM |  |  | 100 to 500 nM | < 0.2 nM | < 50% | < 50% |

The remaining lines, values ahead:

| IC50 [1] | inhibition at 10 µM ([2]; compound at 10 μM, ATP 10 μM) | inhibition at 10 µM ([3]; compound at 10 μM, ATP 10 μM) | IC50 [4] | Kd [5] | inhibition at 10 µM ([2]; 10 μM compound, 10 μM ATP) | inhibition at 10 µM ([3]; 10 μM compound, 10 μM ATP) | SMILES |
| --- | --- | --- | --- | --- | --- | --- | --- |
| > 12500 nM | < 50% | < 50% | < 100 nM | < 0.2 nM |  |  | CNc1cc(Nc2cc(Cl)cn(-c3cnn(C)c3)c2=O)nc2c(C(=O)N[C@H]3C[C@H]3F)cnn12 [I-312] |
| > 2500 nM | < 50% | < 50% | < 100 nM | < 0.2 nM |  |  | CNc1cc(Nc2cc(Cl)cn(-c3ncc(C)s3)c2=O)nc2c(C(=O)N[C@H]3C[C@H]3F)cnn12 [I-323] |
| > 12500 nM | < 50% | < 50% | < 100 nM | < 0.2 nM |  |  | CNc1cc(Nc2cc(Cl)cn(-c3ccc(C4CC4)nn3)c2=O)nc2c(C(=O)NC3CC3)cnn12 [I-333] |
| > 12500 nM | < 50% | < 50% | < 100 nM | < 0.2 nM |  |  | CNc1cc(Nc2cccc([C@H]3CCCOC3)n2)nc2c(C(=O)N[C@@H]3CC[C@H]3O)cnn12 [I-667] |
| > 12500 nM | < 50% | < 50% | < 100 nM | < 0.2 nM |  |  | CNc1cc(Nc2cc(F)cn(-c3cnn(C)c3)c2=O)nc2c(C(=O)NC3CC3)cnn12 [I-380] |
| > 12500 nM | < 50% | < 50% | 100 to 500 nM | < 0.2 nM |  |  | CNc1cc(Nc2cccn([C@H]3CC[C@@](C)(OC)CC3)c2=O)nc2c(C(=O)NC3CC3)cnn12 [I-359] |
| > 12500 nM | < 50% | < 50% | < 100 nM | 1 to 10 nM |  |  | CNc1cc(Nc2cccn(-c3cccc(C)n3)c2=O)nc2c(C(=O)N[C@H]3C[C@H]3F)cnn12 [I-131] |
| > 12500 nM | < 50% | < 50% | < 100 nM | < 0.2 nM |  |  | CNc1cc(Nc2cc(Cl)cn(C3CCOCC3)c2=O)nc2c(C(=O)N[C@H]3CC[C@@H]3O)cnn12 [I-712] |
| > 12500 nM | < 50% | < 50% | < 100 nM | < 0.2 nM |  |  | CNc1cc(Nc2cc(Cl)cn(-c3ccn(C)n3)c2=O)nc2c(C(=O)N[C@H]3C[C@H]3F)cnn12 [I-309] |
| > 2500 nM | < 50% | < 50% | < 100 nM | < 0.2 nM |  |  | CNc1cc(Nc2cccn([C@H]3CCCOC3)c2=O)nc2c(C(=O)N[C@@H]3CC[C@H]3O)cnn12 [I-725] |
| > 50000 nM | < 50% | < 50% | < 100 nM | < 0.2 nM |  |  | CNc1cc(Nc2cc(C)cc(F)c2)nc2c(C(=O)NC3CC3)cnn12 [I-6] |
| > 50000 nM | < 50% | < 50% | 100 to 500 nM | < 0.2 nM |  |  | CNc1cc(Nc2cccc3ocnc23)nc2c(C(=O)N[C@@H]3CC[C@H]3O)cnn12 (racemic) [I-756, 5-(benzo[d]oxazol-4-ylamino)-N-(2-hydroxycyclobutyl)-7-(methylamino) pyrazolo[1,5-a]pyrimidine-3-carboxamide] |
| > 12500 nM | < 50% | < 50% | < 100 nM | < 0.2 nM |  |  | CNc1cc(Nc2cccn(-c3ccccn3)c2=O)nc2c(C(=O)N[C@H]3CC[C@H]3O)cnn12 [I-805] |
| > 50000 nM | < 50% | < 50% | < 100 nM | < 0.2 nM |  |  | CNc1cc(Nc2cccn(-c3nc(C)co3)c2=O)nc2c(C(=O)NC3CCC3)cnn12 [I-386] |
